Source: patent US20060079497A1, “Lavendamycin analogues and methods of synthesizing and using lavendamycin analogues” (Ball State University, priority 2004, published 2006)
Where “and” joins values, the source holds several entries; their conditions need not be identical. Identical values can stand only once. Like-named read-outs stand apart in the source and are kept apart here.

Legend:
HIV-RT = target: T1, HIV-RT (Human immunodeficiency virus type 1 group M subtype B, UniProt P04585); experiment: Checkerboard combination of lavendamycin analogs with AZT-triphosphate in HIV-RT enzyme assay (Chou and Talalay); format: biochemical
T1 construct: 1 unit/mL of HIV-RT (Worthington Biochemical Corp., Freehold, N.J.); purchased Worthington Biochemical Corp., Freehold, N.J
Procedure: The results were analyzed by the method of Chou and Talalay based on the median-effect principle and represented by combination indices (CI) determined for each of the two drug combinations (e.g., see: Chou, T. C.; Talalay, P. “Quantitative Analysis of Dose-Effect Relationships: The Combined Effects of Multiple Drugs or Enzyme Inhibitors,” Adv. Enzyme Regul., 1984, 22, 27-65; and Chou, J.; Chou, T. C. “Dose-Effect Analysis with Microcomputers: Quantitation of ED50, LD50, Synergism, Antagonism, Low-Dose Risk, Receptor-Ligand Binding and Enzyme Kinetics,” In: A computer Software for IBM-PC and Manual, Cambridge, UK, Elsevier-Biosoft, 1987). This method involves the plotting of dose-effect curves for each agent and for each of the different combinations of the agents. The slope of the median-effect plot, which signifies the shape of the dose-effect curve, and the x intercept of the plot, which signifies the potency of each compound alone and each combination, were then used for a computerized calculation of a combination index.
The assay procedure described below is adapted from Okada et al. (Okada, H.; Mukai, H.; Inouye, Y; Nakamura, S. “Biological Properties of Streptonigrin Derivatives II. Inhibition of Reverse Transcriptase Activity,” J. Antibiot., 1986, 39, 306-308). The lavendamycin analogs were initially dissolved in DMSO at a concentration of 1 mg/mL. Occasionally, mild sonication and heat were used to dissolve the less soluble compounds. The dissolved analogs were then serially diluted in distilled water to achieve concentrations in the final reaction mixture ranging from 0.5-15 μM. In addition to the lavendamycin analogs, the final reaction mixture contained 100 mM Tris-HCl (pH 8.0), 5 mM MgCl2, 5 mM dithiothreitol, 60 mM NaCl, 0.2 mM [^3H] thymidine triphosphate(5 μCi well), 4 μg/mL poly (rA)-oligo(dT)12-18 (Amersham Pharmacia Biotech, Piscataway, N.J.) and 1 unit/mL of HIV-RT (Worthington Biochemical Corp., Freehold, N.J.) in a total volume of 300 μL. For each assay, the reaction mixture containing 8× buffer, double distilled H2O, ^3HTTP, template-primer and HIV-RT was pre-mixed in a 15-mL sterile tube in quantities required for the particular experiment. After adding the enzyme, the reaction mixture was mixed and kept on ice. The inhibitors, either AZT(Moravek Biochemicals, Brea, Calif.), analogs or both were added to appropriate wells in a 24 well microtiter plate and ddH2O was added to each well to bring the volume of all test wells to 100 μL. Two hundred μL of the chilled reaction mixture was then added to each of the test wells, mixed, and incubated for 1 hr at 37° C. Several control wells with no inhibitors were included on each test plate. After stopping the reactions with 25 μL 0.1 M EDTA, triplicate samples of 15 μL from each test well were spotted on DE81 ion exchange filter paper squares (Whatman Paper, Maidstone, England). After drying, each filter was washed for 10 minutes three times with 5% TCA-NHPO4, three times with 0.6M NaCl-[…] Na Citrate, one time with ddH2O and one time with 95% ethanol. After drying the individual filter papers were added to 5 mL Scintiverse E (Fisher Scientific, Chicago, Ill.) scintillation fluid and the amount of 3H-TTP uptake measured as counts per minute on a Beckman liquid scintillation counter. […] The results were then analyzed using Calcusyn, a windows software program for dose effect analysis designed by T. -C. Chou and M. P. Hayball and published by Biosoft® (UK).

[1] = Cytotoxicity assay (MTT), normal murine spleen cells stimulated with concanavalin A; format: cell-based; conditions: normal mouse spleen stimulated with concanavalin A inhibited by 50%, read-out: Mean CC50 (Normal Mouse Spleen) ± SEM (no. of expts)
Procedure: (§1) Normal murine spleen cells were washed in HBSS, cultured at 2.5×10^6 or 5×10^6 cells per mL in RPMI 1640 (with Hepes) complete medium with 2 mM-L-glutamine, 1 mM sodium pyruvate, 0.05 mM β-mercaptoethanol, penicillin, streptomycin, and amphotericin B with 10% fetal calf serum and Concanavalin A (ConA) at 2.5 μg/mL in a 96-well microtiter plate. A range of diluted analogs were added to triplicate culture wells and the cells were incubated at 37° C. in 5% CO2. Wells containing cells, media and ConA were used as controls. Forty-eight hours post incubation, 20 μL of the vital dye MTT (3-[4,5-Dimethylthiazol-2-yl]-2,5-diphenyltetrazolium bromide; thiazolyl blue) at 5 mg/mL was added to each well and the cultures re-incubated for 4-6 hours. Following centrifugation, the supernatants were decanted and the stained cells were resuspended in 100 μL of 0.4% HCl acidified isopropanol. The optical densities of each well were read at 600 nm using a Cambridge Technologies series 700 microplate reader. The human lymphocytic cell lines CCRF-CEM (ATCC: HTB 176) and H-9 (ATCC: CCL 119) were subcultured from recently cultured cells grown in complete RPMI 1640 medium as described above but without the β-mercaptoethanol and ConA at 6.25×10^5 and 2×10^6 per mL in a 96 well culture plate. These cell numbers represented log phase and early stationary phase of the freshly cultured cells. As these cell lines rapidly reproduce without mitogenic stimulation, Con A was not used. A range of analogues or media alone was added in triplicate to the cultures and the cultures incubated, pulsed with MTT, harvested and their growth estimated as described above for the murine cultures. The CC50 or the concentration of drug which inhibited cell growth as estimated by MTT formazan production to 50% of that of untreated control cells was determined by linear interpolation for each lavendamycin analog.

[2] = Cytotoxicity assay (MTT), human lymphocytic cell lines, pooled data; format: cell-based; conditions: H-9 and CEM inhibited by 50%, read-out: Mean CC50 (Human Cell Lines) ± SEM (no. of expts)
Procedure: as §1

[3] = analogue 0.25 μM + AZT 0.007 μM, Trial 1
[4] = analogue 0.25 μM + AZT 0.007 μM, Trial 2
[5] = analogue 0.25 μM + AZT 0.01 μM, Trial 1
[6] = analogue 0.25 μM + AZT 0.01 μM, Trial 2
[7] = analogue 0.25 μM + AZT 0.02 μM, Trial 1
[8] = analogue 0.25 μM + AZT 0.02 μM, Trial 2
[9] = analogue 0.5 μM + AZT 0.007 μM, Trial 1
[10] = analogue 0.5 μM + AZT 0.007 μM, Trial 2
[11] = analogue 0.5 μM + AZT 0.01 μM, Trial 1
[12] = analogue 0.5 μM + AZT 0.01 μM, Trial 2
[13] = analogue 0.5 μM + AZT 0.02 μM, Trial 1
[14] = analogue 0.5 μM + AZT 0.02 μM, Trial 2
[15] = analogue 0.75 μM + AZT 0.01 μM, Trial 1
[16] = analogue 0.75 μM + AZT 0.01 μM, Trial 2
[17] = analogue 0.75 μM + AZT 0.02 μM, Trial 1
[18] = analogue 0.75 μM + AZT 0.02 μM, Trial 2
[19] = analogue 1.5 μM + AZT 0.007 μM, Trial 1
[20] = analogue 1.5 μM + AZT 0.007 μM, Trial 2
[21] = analogue 1.5 μM + AZT 0.01 μM, Trial 1
[22] = analogue 1.5 μM + AZT 0.01 μM, Trial 2
[23] = analogue 1.5 μM + AZT 0.02 μM, Trial 1
[24] = analogue 1.5 μM + AZT 0.02 μM, Trial 2

| SMILES | Combination index (HIV-RT) | Combination index (HIV-RT; [3]) | Combination index (HIV-RT; [4]) | Combination index (HIV-RT; [5]) | Combination index (HIV-RT; [6]) | Combination index (HIV-RT; [7]) | Combination index (HIV-RT; [8]) | Combination index (HIV-RT; [9]) | Combination index (HIV-RT; [10]) | Combination index (HIV-RT; [11]) | Combination index (HIV-RT; [12]) | Combination index (HIV-RT; [13]) | Combination index (HIV-RT; [14]) | Combination index (HIV-RT; [15]) | Combination index (HIV-RT; [16]) | Combination index (HIV-RT; [17]) | Combination index (HIV-RT; [18]) | Combination index (HIV-RT; [19]) | Combination index (HIV-RT; [20]) | Combination index (HIV-RT; [21]) | also measured |
| --- | --- | --- | --- | --- | --- | --- | --- | --- | --- | --- | --- | --- | --- | --- | --- | --- | --- | --- | --- | --- | --- |
| CCCCCCCCOC(=O)c1cc2c([nH]c3ccccc32)c(-c2ccc3c(n2)C(=O)C(N)=CC3=O)n1 [Compound 20, Demethyllavendamycin n-Octyl Ester] | 0.68 and 0.66 | 0.65 | 0.61 | 0.77 | 0.77 | 0.97 | 1.00 | 0.62 | 0.61 | 0.60 | 0.61 | 0.86 | 0.88 | 0.64 | 0.63 | 0.61 | 0.64 | 0.83 | 0.83 | 0.70 | Combination index (HIV-RT; [22]): 0.69; Combination index (HIV-RT; [23]): 0.64; Combination index (HIV-RT; [24]): 0.63; CC50 at 48 h [1]: 48 ± 10 µM; CC50 at 48 h [2]: 47 ± 14 µM |
| CCCCOC(=O)c1cc2c([nH]c3ccccc32)c(-c2ccc3c(n2)C(=O)C(NC(=O)CCC)=CC3=O)n1 [Compound 12, 7-N-n-Butyryidemethyllavendamycin n-Butyl Ester] | 1.30 and 1.60 | 0.82 | 0.83 | 0.58 | 0.58 | 0.59 | 0.50 | 0.88 | 0.71 | 0.76 | 0.76 | 0.85 | 0.93 | 0.86 | 0.99 | 1.00 | 0.92 | 1.30 | 1.20 | 0.81 | Combination index (HIV-RT; [22]): 0.91; Combination index (HIV-RT; [23]): 1.10; Combination index (HIV-RT; [24]): 0.96; CC50 at 48 h [1]: 81 ± 17 µM; CC50 at 48 h [2]: 50 ± 15 µM |
| COC(=O)c1nc(-c2ccc3c(n2)C(=O)C(NC(C)=O)=CC3=O)c2[nH]c3ccccc3c2c1C [Compound 11, 7-acetyllavendamycin methyl ester] | 1.00 and 1.30 | 0.57 | 0.48 | 0.94 | 0.89 | 0.90 | 0.68 | 0.81 | 0.71 | 0.84 | 0.76 | 0.72 | 0.84 | 1.20 | 1.08 | 0.94 | 0.84 | 1.40 | 1.23 | 1.40 | Combination index (HIV-RT; [22]): 1.12; Combination index (HIV-RT; [23]): 1.17; Combination index (HIV-RT; [24]): 1.08; CC50 at 48 h ([1]; normal murine spleen cells stimulated with concanavalin A): 62 ± 5 µM; CC50 at 48 h ([2]; human lymphocytic cell lines CCRF-CEM and H-9, pooled data): 31 ± 2 µM |
